From article PMC7736581, “Activation of the IRE1 RNase through remodeling of the kinase front pocket by ATP-competitive ligands” (Nature Communications, 2020)

Legend:
Assay in all cases: biochemical
Design in all cases: Invitrogen kinase panel: Z'Lyte activity (ATP at Km) or LanthaScreen competitive ATP-site binding, percent inhibition
[1] = biological target: CSF1R (Homo sapiens, UniProt P07333)
[2] = biological target: T1, TrkB (Homo sapiens, UniProt Q16620)
T1 construct: gene NTRK2

[3] = biological target: T2, KHS1 (Homo sapiens, UniProt Q9Y4K4)
T2 construct: gene MAP4K5

[4] = biological target: TEC (Homo sapiens, UniProt P42680)
[5] = biological target: MELK (Homo sapiens, UniProt Q14680)
[6] = biological target: Mink1 (Homo sapiens, UniProt Q8N4C8)
[7] = biological target: T3, Ros (Homo sapiens, UniProt P08922)
T3 construct: gene ROS1

[8] = biological target: EphA3 (Homo sapiens, UniProt P29320)
[9] = biological target: T4, ZIPK (Homo sapiens, UniProt O43293)
T4 construct: gene DAPK3

[10] = biological target: GRK2 (Homo sapiens, UniProt P25098)
[11] = biological target: PLK2 (Homo sapiens, UniProt Q9NYY3)
[12] = biological target: T5, Rsk1 (Homo sapiens, UniProt Q15418)
T5 construct: gene RPS6KA1

[13] = biological target: T6, CaMKII_beta (Homo sapiens, UniProt Q13554)
T6 construct: gene CAMK2B

[14] = biological target: T7, DNA-PK (Homo sapiens, UniProt P78527)
T7 construct: gene PRKDC

[15] = biological target: CAMKK1 (Homo sapiens, UniProt Q8N5S9)
[16] = biological target: T8, CK1_alpha1 (Homo sapiens, UniProt P48729)
T8 construct: gene CSNK1A1

[17] = biological target: Kit (Homo sapiens, UniProt P10721)
[18] = biological target: T9, CK1_delta (Homo sapiens, UniProt P48730)
T9 construct: gene CSNK1D

[19] = biological target: T10, MKK6 (Homo sapiens, UniProt P52564)
T10 construct: gene MAP2K6

[20] = biological target: T11, CamKIV (Homo sapiens, UniProt Q16566)
T11 construct: gene CAMK4

[21] = biological target: HIPK1 (Homo sapiens, UniProt Q86Z02)
[22] = biological target: GRK5 (Homo sapiens, UniProt P34947)
[23] = biological target: DYRK1A (Homo sapiens, UniProt Q13627)
[24] = biological target: InsR (Homo sapiens, UniProt P06213)
[25] = biological target: SGK3 (Homo sapiens, UniProt Q96BR1)

T5 sequence (Q15418 whole entry): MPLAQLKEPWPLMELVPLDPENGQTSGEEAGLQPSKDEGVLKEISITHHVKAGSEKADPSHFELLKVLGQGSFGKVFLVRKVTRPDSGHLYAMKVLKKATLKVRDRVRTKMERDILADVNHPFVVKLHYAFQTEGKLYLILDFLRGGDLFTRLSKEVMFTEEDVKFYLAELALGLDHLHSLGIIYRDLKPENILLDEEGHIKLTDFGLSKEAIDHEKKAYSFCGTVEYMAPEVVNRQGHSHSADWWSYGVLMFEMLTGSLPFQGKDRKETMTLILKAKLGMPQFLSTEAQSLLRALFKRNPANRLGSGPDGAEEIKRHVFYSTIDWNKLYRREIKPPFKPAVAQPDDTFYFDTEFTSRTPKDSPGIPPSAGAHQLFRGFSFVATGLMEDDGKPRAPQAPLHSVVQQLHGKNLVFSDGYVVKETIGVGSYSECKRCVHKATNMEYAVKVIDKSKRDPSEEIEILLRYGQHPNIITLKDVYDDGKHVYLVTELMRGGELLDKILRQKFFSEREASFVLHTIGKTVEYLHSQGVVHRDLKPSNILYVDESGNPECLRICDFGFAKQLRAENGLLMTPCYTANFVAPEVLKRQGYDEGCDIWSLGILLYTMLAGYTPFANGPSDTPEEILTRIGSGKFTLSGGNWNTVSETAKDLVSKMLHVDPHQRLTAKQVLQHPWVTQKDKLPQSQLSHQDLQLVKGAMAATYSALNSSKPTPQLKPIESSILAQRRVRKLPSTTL
T8 sequence (P48729 whole entry): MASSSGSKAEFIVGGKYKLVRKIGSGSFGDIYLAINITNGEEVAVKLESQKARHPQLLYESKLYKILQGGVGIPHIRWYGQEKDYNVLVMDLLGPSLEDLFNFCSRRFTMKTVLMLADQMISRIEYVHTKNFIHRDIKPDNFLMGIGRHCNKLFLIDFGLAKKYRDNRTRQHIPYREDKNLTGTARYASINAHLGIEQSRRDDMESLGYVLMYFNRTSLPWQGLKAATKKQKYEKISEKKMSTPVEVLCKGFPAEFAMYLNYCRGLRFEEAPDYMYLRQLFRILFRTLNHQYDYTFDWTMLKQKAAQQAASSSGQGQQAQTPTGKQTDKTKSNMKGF
T2 sequence (Q9Y4K4 whole entry): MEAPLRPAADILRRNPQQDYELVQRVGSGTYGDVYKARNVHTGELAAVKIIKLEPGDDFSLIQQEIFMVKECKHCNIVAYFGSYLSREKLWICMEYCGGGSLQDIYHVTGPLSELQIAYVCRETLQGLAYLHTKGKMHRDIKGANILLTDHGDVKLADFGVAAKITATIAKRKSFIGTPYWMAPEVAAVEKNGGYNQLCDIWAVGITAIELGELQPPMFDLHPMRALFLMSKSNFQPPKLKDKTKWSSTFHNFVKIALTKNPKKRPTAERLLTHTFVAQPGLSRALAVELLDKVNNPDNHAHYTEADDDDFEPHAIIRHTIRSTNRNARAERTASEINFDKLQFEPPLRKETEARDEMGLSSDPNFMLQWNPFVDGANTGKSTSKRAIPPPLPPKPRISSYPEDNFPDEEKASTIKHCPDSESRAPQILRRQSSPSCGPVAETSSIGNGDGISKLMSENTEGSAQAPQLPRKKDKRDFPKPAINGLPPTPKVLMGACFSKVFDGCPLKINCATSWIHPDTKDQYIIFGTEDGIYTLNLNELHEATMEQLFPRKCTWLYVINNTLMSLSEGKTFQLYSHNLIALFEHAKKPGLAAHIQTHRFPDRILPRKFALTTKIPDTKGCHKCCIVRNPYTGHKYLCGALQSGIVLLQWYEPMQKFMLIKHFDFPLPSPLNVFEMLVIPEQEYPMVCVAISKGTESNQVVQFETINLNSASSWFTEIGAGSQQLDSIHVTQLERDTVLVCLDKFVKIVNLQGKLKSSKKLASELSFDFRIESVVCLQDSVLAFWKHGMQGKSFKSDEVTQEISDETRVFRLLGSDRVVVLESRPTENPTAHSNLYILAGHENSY
Sequence of Kit (P10721 whole entry): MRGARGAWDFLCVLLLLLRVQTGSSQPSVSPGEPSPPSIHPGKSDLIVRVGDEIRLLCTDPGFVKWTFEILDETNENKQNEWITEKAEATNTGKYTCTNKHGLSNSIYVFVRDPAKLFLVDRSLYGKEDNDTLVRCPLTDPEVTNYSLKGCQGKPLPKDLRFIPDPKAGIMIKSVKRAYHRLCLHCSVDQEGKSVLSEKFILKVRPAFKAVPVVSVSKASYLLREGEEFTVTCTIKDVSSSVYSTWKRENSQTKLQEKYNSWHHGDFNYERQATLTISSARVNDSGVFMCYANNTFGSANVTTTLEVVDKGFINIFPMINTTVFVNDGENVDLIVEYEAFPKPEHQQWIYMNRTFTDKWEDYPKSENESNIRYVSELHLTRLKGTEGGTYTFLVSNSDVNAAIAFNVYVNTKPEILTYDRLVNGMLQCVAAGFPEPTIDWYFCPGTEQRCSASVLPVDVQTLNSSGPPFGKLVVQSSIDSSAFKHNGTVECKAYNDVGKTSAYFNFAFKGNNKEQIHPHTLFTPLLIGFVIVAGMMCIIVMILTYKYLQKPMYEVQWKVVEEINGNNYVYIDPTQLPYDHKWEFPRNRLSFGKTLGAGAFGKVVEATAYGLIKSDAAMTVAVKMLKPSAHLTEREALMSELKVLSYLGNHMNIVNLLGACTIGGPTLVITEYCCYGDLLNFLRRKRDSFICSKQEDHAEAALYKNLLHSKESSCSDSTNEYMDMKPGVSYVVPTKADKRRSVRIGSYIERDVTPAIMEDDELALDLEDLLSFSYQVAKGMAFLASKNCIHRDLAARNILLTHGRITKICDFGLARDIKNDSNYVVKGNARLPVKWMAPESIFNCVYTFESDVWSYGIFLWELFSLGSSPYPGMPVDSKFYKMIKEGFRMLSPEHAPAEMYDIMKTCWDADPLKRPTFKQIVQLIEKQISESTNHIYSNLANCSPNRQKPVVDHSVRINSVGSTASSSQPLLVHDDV
Sequence of Mink1 (Q8N4C8 whole entry): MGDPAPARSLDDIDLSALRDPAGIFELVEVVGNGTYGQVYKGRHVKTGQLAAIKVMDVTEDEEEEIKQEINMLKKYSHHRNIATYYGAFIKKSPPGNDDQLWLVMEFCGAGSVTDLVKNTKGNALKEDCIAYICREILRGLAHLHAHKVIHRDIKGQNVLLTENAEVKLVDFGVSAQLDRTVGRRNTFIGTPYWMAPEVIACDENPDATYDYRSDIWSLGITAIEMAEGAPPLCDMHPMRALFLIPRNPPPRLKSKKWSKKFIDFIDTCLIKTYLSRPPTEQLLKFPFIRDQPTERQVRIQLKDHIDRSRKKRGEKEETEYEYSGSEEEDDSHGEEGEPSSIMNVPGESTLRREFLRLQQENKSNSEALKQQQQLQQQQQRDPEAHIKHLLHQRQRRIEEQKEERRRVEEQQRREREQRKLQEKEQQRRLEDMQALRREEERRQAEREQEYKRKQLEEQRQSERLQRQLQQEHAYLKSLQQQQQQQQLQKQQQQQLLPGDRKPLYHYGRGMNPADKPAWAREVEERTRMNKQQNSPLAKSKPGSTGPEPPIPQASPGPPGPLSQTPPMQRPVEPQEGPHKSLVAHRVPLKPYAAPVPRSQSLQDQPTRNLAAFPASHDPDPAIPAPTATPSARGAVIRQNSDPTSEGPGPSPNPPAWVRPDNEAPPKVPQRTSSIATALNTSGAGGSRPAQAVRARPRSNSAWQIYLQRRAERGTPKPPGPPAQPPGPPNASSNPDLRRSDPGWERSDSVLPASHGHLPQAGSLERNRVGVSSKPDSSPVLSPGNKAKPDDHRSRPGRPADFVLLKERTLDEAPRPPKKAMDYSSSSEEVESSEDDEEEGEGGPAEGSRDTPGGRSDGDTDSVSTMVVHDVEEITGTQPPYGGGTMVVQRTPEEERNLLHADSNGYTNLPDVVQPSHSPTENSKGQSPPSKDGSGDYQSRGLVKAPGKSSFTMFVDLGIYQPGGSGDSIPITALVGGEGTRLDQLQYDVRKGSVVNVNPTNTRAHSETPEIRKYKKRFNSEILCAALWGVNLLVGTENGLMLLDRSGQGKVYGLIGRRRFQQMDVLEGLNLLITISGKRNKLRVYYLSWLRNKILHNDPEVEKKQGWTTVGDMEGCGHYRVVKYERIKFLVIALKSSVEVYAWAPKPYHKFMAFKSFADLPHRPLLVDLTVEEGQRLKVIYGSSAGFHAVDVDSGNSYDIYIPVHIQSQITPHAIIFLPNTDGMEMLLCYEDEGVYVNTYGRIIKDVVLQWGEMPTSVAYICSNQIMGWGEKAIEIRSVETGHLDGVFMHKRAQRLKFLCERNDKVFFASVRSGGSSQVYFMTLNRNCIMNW
Sequence of MELK (Q14680 whole entry): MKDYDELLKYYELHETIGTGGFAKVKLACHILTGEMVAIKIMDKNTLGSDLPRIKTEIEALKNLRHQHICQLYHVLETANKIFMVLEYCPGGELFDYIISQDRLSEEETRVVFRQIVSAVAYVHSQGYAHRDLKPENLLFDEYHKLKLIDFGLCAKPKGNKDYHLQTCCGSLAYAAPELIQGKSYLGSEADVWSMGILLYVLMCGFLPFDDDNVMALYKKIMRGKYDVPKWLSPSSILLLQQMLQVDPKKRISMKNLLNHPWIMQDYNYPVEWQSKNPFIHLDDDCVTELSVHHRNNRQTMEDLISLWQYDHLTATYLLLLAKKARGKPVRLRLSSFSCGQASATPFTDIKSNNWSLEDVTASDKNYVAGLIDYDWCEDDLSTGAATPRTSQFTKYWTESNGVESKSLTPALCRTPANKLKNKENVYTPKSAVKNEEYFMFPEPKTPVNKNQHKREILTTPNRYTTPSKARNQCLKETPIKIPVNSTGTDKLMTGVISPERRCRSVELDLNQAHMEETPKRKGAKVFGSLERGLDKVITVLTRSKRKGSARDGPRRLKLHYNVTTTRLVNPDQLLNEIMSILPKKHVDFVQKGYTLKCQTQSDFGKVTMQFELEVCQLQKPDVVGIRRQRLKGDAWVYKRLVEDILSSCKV

| SMILES | inhibition at 1 µM [1] | inhibition at 1 µM [2] | inhibition at 1 µM [3] | inhibition at 1 µM [4] | inhibition at 1 µM [5] | inhibition at 1 µM [6] | inhibition at 1 µM [7] | inhibition at 1 µM [8] | inhibition at 1 µM [9] | inhibition at 1 µM [10] | inhibition at 1 µM [11] | inhibition at 1 µM [12] | inhibition at 1 µM [13] | inhibition at 1 µM [14] | inhibition at 1 µM [15] | inhibition at 1 µM [16] | inhibition at 1 µM [17] | inhibition at 1 µM [18] | inhibition at 1 µM [19] | inhibition at 1 µM [20] | other results |
| --- | --- | --- | --- | --- | --- | --- | --- | --- | --- | --- | --- | --- | --- | --- | --- | --- | --- | --- | --- | --- | --- |
| CCOC(=O)Nc1cccc2c(Oc3ncccc3-c3ccnc(N[C@H]4CCCNC4)n3)c(C)ccc12 [G-1749] | 7% | 0.5% | 29.5% | 4% | 33% | 25% | 7% | 1% | 1% | 2% | 3% | 3% | -2% | 6.5% | 3.5% | -1.5% | 0% | 3% | -3.5% | -1.5% | inhibition at 1 µM [21]: 1%; inhibition at 1 µM [22]: -3%; inhibition at 1 µM [23]: 4%; inhibition at 1 µM [24]: 2.5%; inhibition at 1 µM [25]: -5.5% |
| CC#CC(=O)Nc1cccc2c(Oc3ncccc3-c3ccnc(N[C@H]4CCCNC4)n3)c(C)ccc12 [G-7658] | -7.5% | 0.5% | 18% | 3% | 19.5% | 4% | 8% | 4.5% | 0% | 1% | 3% | 1.5% | 0.5% | 11% | 5.5% | -0.5% | -0.5% | 5.5% | -2% | -2.5% | inhibition at 1 µM [21]: 0.5%; inhibition at 1 µM [22]: -3%; inhibition at 1 µM [23]: 2.5%; inhibition at 1 µM [24]: 3%; inhibition at 1 µM [25]: -2% |
